From patent US20240218399A1, “LIPID COMPOUNDS AND LIPID NANOPARTICLE COMPOSITIONS” (SUZHOU ABOGEN BIOSCIENCES CO., LTD., priority 2021, published 2024)

Experiments:
Hela cells = assay: In vitro GFP mRNA expression from LNP formulations; assay type: cell-based; details: for in vitro GFP expression of LNP formulated using sphingomyelin with this cationic lipid: FIG. 3C
Method: (§1) Lipid nanoparticles encapsulating green fluorescent protein (GFP) mRNA were prepared as described above. Hela cell line was seeded in a 96-well plate. LNP formulation was mixed with 10 μg/mL ApoE at 1:1 (v/v) ratio, then added to the cells at 200 ng/well or 400 ng/well concentrations, and incubated for 36 to 48 hours. GFP intensity was measured with […] following manufacturer's instructions, and fluorescence intensity (relative light units; RLU) of different groups were plotted in FIG. 3A to 3C, showing the mean value and standard deviation (SD) of at least five repeated experiments for each group.
as §1, with “Hela” for “Lipid nanoparticles encapsulating green fluorescent protein (GFP) mRNA were prepared as described above. Hela”, “ratio at 37° C. for 15 min,” for “ratio,”, “at” for “at 200 ng/well or”, “8,” for “3A to 3C,”, “three” for “five”

female ICR mice = assay: In vivo hEPO mRNA expression, serum hEPO after tail vein injection; details: 0.5 mg/kg tail vein; for in vivo mRNA expression of sphingomyelin-containing LNP compared to corresponding DSPC control formulation: FIG. 9; for hEPO protein expression level in mice among formulations of Table 6.7: FIG. 7, sphingomyelin of different tail length
Method: Lipid nanoparticles encapsulating human erythropoietin (hEPO) mRNA were prepared as described above, and systemically administered to 6-8 week old female ICR mice (Xipuer-Bikai, Shanghai) at 0.5 mg/kg dose by tail vein injection. Mice were euthanized by CO2 overdoses at 6 hours post administration, and blood samples were taken for hEPO measurement. Particularly, serum were separated from total blood by centrifugation at 5000 g for 10 minutes at 4° C., snap-frozen and stored at −80° C. for analysis. The serum hEPO level was measured using an ELSA assay carried out using a commercial kit (DEP00, R&D systems) according to manufacturer's instructions. The hEPO expression levels (μg/ml) measured from the tested group are plotted in FIG. 4, showing the mean value and standard deviation (SD) of at least five repeated experiments (test animals) for each group.
(§2) Each LNP formulation was systemically administered to 6-8 week old female ICR mice (Xipuer-Bikai, Shanghai) at 0.5 mg/kg dose by tail vein injection, and blood samples were taken for hEPO measurement as described herein. The hEPO expression levels (μg/ml) measured from the tested group are plotted in FIG. 6, showing the mean value and standard deviation (SD) of at least five repeated experiments (test animals) for each group.
as §2, with “7,” for “6,”
as §2, with “9,” for “6,”, “group. As shown, for each of the tested cationic lipids, the average in vivo expression level of mRNA was higher for the sphingomyelin containing composition as compared to the corresponding control formulation containing an equivalent amount of DSPC instead of sphingomyelin.” for “group.”

CCCCCCCCC(CCCCCCCC)CNC(=O)CCCCCN(CCO)CCN(CCCCCC(=O)OCC(CCCCCCCC)CCCCCCCC)C1CCC1 [Formulation C3]
in vitro mRNA expression of sphingomyelin-containing LNP compared to corresponding DSPC control formulation (Hela cells; GFP mRNA, 400 ng/well, FIG. 8): significantly higher

CCCCCCCCC(CCCCCC)C(=O)OCCCCCCN(CCCCO)CCCCCCOC(=O)C(CCCCCC)CCCCCCCC (stereo not drawn) [ALC-0315, reference compound]
in vivo mRNA expression of sphingomyelin-containing LNP compared to corresponding DSPC control formulation (female ICR mice): significantly higher

CCCCCCCCCCCCC/C=C/[C@@H](O)[C@H](COP(=O)([O-])OCC[N+](C)(C)C)NC(=O)CCCCCCCCCCCCCCC [SM-03, 16:0(d18:1/16:0)]
hEPO protein expression level in mice among formulations of Table 6.7 (female ICR mice): highest protein expression level

CCCCCCCC(=O)OCC(CCCCN(CCCCCO)CCCCC(COC(=O)CCCCCCC)COC(=O)CCCCCCC)COC(=O)CCCCCCC [Formulation C14]
in vivo mRNA expression of sphingomyelin-containing LNP compared to corresponding DSPC control formulation (female ICR mice): significantly higher

CCCCCCCCC(CCCCCC)COC(=O)CCCCCN(CCCCCC(=O)OCC(CCCCCC)CCCCCCCC)CCN(CCO)C1CCC1 (stereo not drawn) [Formulation C1]
in vitro GFP expression of LNP formulated using sphingomyelin with this cationic lipid (Hela cells): enhanced in vitro GFP expression
in vivo mRNA expression of sphingomyelin-containing LNP compared to corresponding DSPC control formulation (female ICR mice): significantly higher

CCCCCCCCCCCCC/C=C/[C@@H](O)[C@H](COP(=O)([O-])OCC[N+](C)(C)C)NC(=O)CCCCCCCCCCCCC [SM-02, 14:0(d18:1/14:0)]
hEPO protein expression level in mice among formulations of Table 6.7 (female ICR mice): highest protein expression level

CCCCCCCCCOC(=O)CCCCCCCN(CCO)CCCCCCCC(=O)OC(CCCCCCCC)CCCCCCCC [Lipid 5, reference compound]
in vitro GFP expression of LNP formulated using sphingomyelin with this cationic lipid (Hela cells): enhanced in vitro GFP expression

CCCCC/C=C\C/C=C\CCCCCCCC(=O)OCCCCCCN(CCO)CCCCC(COC(=O)CCCCCCC)COC(=O)CCCCCCC [Formulation C16]
in vivo mRNA expression of sphingomyelin-containing LNP compared to corresponding DSPC control formulation (female ICR mice): significantly higher
